Assay results taken from ChEMBL document CHEMBL1201862, “PubChem BioAssay data set” (2004).
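1) Cells in 96-well plates. 2) Compound, 48 h, 5 concentrations. 3) Linear interpolation between surrounding doses. 4) Unreached endpoint = highest concentration. Here, GI50 denotes the concentration required for 50% inhibition of growth.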 Active and inactive are the calls of the source. Cut-off read from the data, not from the text of the source: active = GI50 up to about 1.1 µM and inactive = higher.

Legend:
Test in all cases: NCI anticancer screen, dose series, 48 h
[1] = tested on: T47D
[2] = tested on: SK-OV-3
[3] = tested on: SK-MEL-5
[4] = tested on: SNB-75
[5] = tested on: SF-295
[6] = tested on: UACC-62
[7] = tested on: UACC-257
[8] = tested on: SN12C
[9] = tested on: HL-60
[10] = tested on: 786-0
[11] = tested on: PC-3
[12] = tested on: OVCAR-5
[13] = tested on: SK-MEL-28
[14] = tested on: MDA-N
[15] = tested on: K562
[16] = tested on: HCC 2998
[17] = tested on: LOX IMVI
[18] = tested on: RPMI-8226
[19] = tested on: A549
[20] = tested on: HT-29
[21] = tested on: OVCAR-4
[22] = tested on: SR
[23] = tested on: COLO 205
[24] = tested on: HCT-15
[25] = tested on: HOP-92
[26] = tested on: SF-539
[27] = tested on: M14
[28] = tested on: MDA-MB-435
[29] = tested on: EKVX
[30] = tested on: CCRF-CEM
[31] = tested on: UO-31
[32] = tested on: KM12
[33] = tested on: CAKI-1
[34] = tested on: HOP-62
[35] = tested on: NCI-H522
[36] = tested on: SF-268
[37] = tested on: NCI-H226
[38] = tested on: OVCAR-8
[39] = tested on: TK-10
[40] = tested on: NCI/ADR-RES
[41] = tested on: U-251
[42] = tested on: SK-MEL-2
[43] = tested on: MOLT-4
[44] = tested on: DU-145
[45] = tested on: IGROV-1
[46] = tested on: MDA-MB-231
[47] = tested on: SNB-19
[48] = tested on: Hs-578T
[49] = tested on: SW-620
[50] = tested on: ACHN
[51] = tested on: MCF7
[52] = tested on: NCI-H23
[53] = tested on: OVCAR-3
[54] = tested on: HCT-116
[55] = tested on: NCI-H460
[56] = tested on: RXF 393
[57] = tested on: A498
[58] = tested on: Malme-3M

Measured: GI50

CC1CCC2C(C)C(=O)OC2C2(C)C(=O)C=CC12 (centres undefined)
> 10 µM: [24]
inactive: [1] > 10 µM | [2] > 10 µM | [3] > 10 µM | [4] > 10 µM | [5] > 10 µM | [6] > 10 µM | [7] > 10 µM | [8] > 10 µM | [9] 6.82 µM | [10] > 10 µM | [11] > 10 µM | [12] > 10 µM | [13] > 10 µM | [14] 6.14 µM | [15] 4.57 µM | [16] > 10 µM | [17] 8.69 µM | [18] 8.47 µM | [19] > 10 µM | [20] > 10 µM | [21] > 10 µM | [22] 3.61 µM | [23] > 10 µM | [25] > 10 µM | [26] > 10 µM | [27] > 10 µM | [28] > 10 µM | [29] > 10 µM | [30] 3.92 µM | [31] > 10 µM | [32] > 10 µM | [33] > 10 µM | [34] > 10 µM | [35] 2.83 µM | [36] > 10 µM | [37] > 10 µM | [38] > 10 µM | [39] > 10 µM | [40] > 10 µM | [41] > 10 µM | [42] 9.4 µM | [43] 6.59 µM | [44] > 10 µM | [45] > 10 µM | [46] > 10 µM | [47] > 10 µM | [48] > 10 µM | [49] > 10 µM | [50] > 10 µM | [51] 8.79 µM | [52] > 10 µM | [53] > 10 µM | [54] 7.76 µM | [55] > 10 µM | [56] > 10 µM

CC1=C(C)CC2(C=C(C(C)(C)C)C(=O)C(C(C)(C)C)=C2)SC1
inactive: [1] 27.9 µM | [2] 25 µM | [3] 13.2 µM | [4] 16.1 µM | [5] 16 µM | [6] 29.2 µM | [7] 26.6 µM | [8] 17.4 µM | [9] 18.3 µM | [10] 17.9 µM | [11] 26.7 µM | [12] 20.1 µM | [14] 27.2 µM | [15] 30.3 µM | [17] 17.4 µM | [18] 12.8 µM | [19] 21.9 µM | [20] 19.9 µM | [21] 26.7 µM | [22] 26.5 µM | [23] 17.6 µM | [25] 19.2 µM | [26] 18.3 µM | [27] 24.7 µM | [57] 17.5 µM | [28] 19.5 µM | [29] 18.6 µM | [30] 19.8 µM | [31] 15.7 µM | [32] 19.1 µM | [33] 21.5 µM | [34] 19.3 µM | [35] 1.91 µM | [36] 19.5 µM | [37] 17 µM | [39] 18.6 µM | [40] 19.1 µM | [41] 15.6 µM | [42] 12.3 µM | [58] 14.2 µM | [43] 27.4 µM | [44] 39.3 µM | [45] 13.9 µM | [46] 14.3 µM | [47] 17.3 µM | [48] 16.9 µM | [49] 18.2 µM | [51] 15.6 µM | [52] 18.5 µM | [53] 17.9 µM | [54] 28.4 µM | [55] 27 µM | [56] 18.5 µM

[O-]/[N+](=N/c1ncc(-c2ccccc2)cn1)c1ncc(-c2ccccc2)cn1
36.4 µM: [24]
inactive: [1] > 79.8 µM | [2] > 100 µM | [3] 42.7 µM | [4] > 100 µM | [5] 73.5 µM | [6] > 100 µM | [7] > 100 µM | [8] > 100 µM | [9] 39.1 µM | [10] 99.5 µM | [11] 92.7 µM | [12] > 100 µM | [13] > 61.9 µM | [14] > 100 µM | [15] 52.8 µM | [16] > 100 µM | [17] 43.4 µM | [18] > 64.6 µM | [19] > 100 µM | [20] > 78 µM | [21] 54.6 µM | [22] 16.4 µM | [23] > 100 µM | [25] 69 µM | [26] > 65.2 µM | [27] > 100 µM | [57] > 100 µM | [28] 40.5 µM | [29] 63.5 µM | [30] 34.4 µM | [31] > 66.1 µM | [32] 67.6 µM | [33] > 100 µM | [34] > 100 µM | [35] 14.8 µM | [36] > 84.7 µM | [37] > 94.8 µM | [38] > 96.6 µM | [39] > 100 µM | [40] 62.1 µM | [41] 44.1 µM | [42] > 100 µM | [58] 32.2 µM | [43] > 64.6 µM | [44] > 100 µM | [45] 29.9 µM | [46] > 100 µM | [47] > 58.3 µM | [48] > 76.6 µM | [49] > 95.7 µM | [50] > 100 µM | [51] 36 µM | [52] > 100 µM | [53] > 83.8 µM | [54] 31.6 µM | [55] > 100 µM | [56] 60.5 µM

COC(=O)C1CC2CC1C1C2SC(F)(F)C1(F)F (centres undefined)
inactive: [1] > 100 µM | [2] > 100 µM | [3] > 100 µM | [4] > 100 µM | [5] > 100 µM | [6] > 100 µM | [7] > 100 µM | [8] > 100 µM | [10] > 100 µM | [11] > 100 µM | [12] > 100 µM | [13] > 100 µM | [14] > 100 µM | [16] > 100 µM | [17] > 100 µM | [18] > 100 µM | [19] > 100 µM | [21] > 100 µM | [22] > 100 µM | [23] > 100 µM | [26] > 100 µM | [27] > 100 µM | [57] > 100 µM | [28] > 100 µM | [29] > 100 µM | [31] > 100 µM | [32] > 100 µM | [33] > 100 µM | [34] > 100 µM | [35] > 100 µM | [36] > 100 µM | [37] > 100 µM | [38] > 100 µM | [39] > 100 µM | [40] > 100 µM | [41] > 100 µM | [42] > 100 µM | [58] > 100 µM | [43] > 100 µM | [44] > 100 µM | [45] > 100 µM | [46] > 100 µM | [47] > 100 µM | [48] > 100 µM | [49] > 100 µM | [50] > 100 µM | [51] > 100 µM | [53] > 100 µM | [54] > 100 µM | [55] > 100 µM | [56] > 100 µM
> 100 µM: [24]
